Results as given in US9453023B2, “Substituted phenyl cycloalkyl pyrrolidine (piperidine) spirolactams and amides, preparation and therapeutic use thereof” (SANOFI, priority 2010, dated 2016).
Structures can show the parent of a compound that is named as a salt.

Each compound was assayed against rhesus (Macacca Mulatta) H3 receptor (Macaca mulatta, UniProt Q865E1) (assay: Rhesus H3 radioligand binding assay ([3H]-Methylhistamine, WGA SPA)). Details: displacement of [3H]-Methylhistamine (2 nM) from rhesus H3 receptor membranes; Cheng-Prusoff.
Design: species or system rhesus monkey (Macacca Mulatta)
Protocol: (Genbank #AY231164). Stably transfected cultures were amplified in tissue culture flasks by standard tissue culture methods and induced to express rhesus H3 by exposure to 500 ng/ml tetracycline (Cellgro) for 24 hours. After induction, cells were dissociated from flasks utilizing Cell Stripper (Cellgro). Cells were centrifuged (1K×g, 5 min) and pellet frozen in an ethanol-dry ice bath to disrupt cell membranes. Frozen cell pellet was re-suspended in 5 mM HEPES (pH 7.4, Invitrogen) at 10 ml/1000 cm2 of harvested cells. The cell suspension was drawn through an 18 gauge needle (2-3×) followed by a 23 gauge needle (2-3×) to further disrupt cell membranes. The cell suspension was centrifuged (40K×g, 30 min). Cell membrane pellet was re-suspended in 5 mM HEPES (pH 7.4, Invitrogen) at a final protein concentration of 10 mg/ml. Rhesus H3 membranes were stored under liquid nitrogen prior to use in [3H]-Methylhistamine and GTPγS radioligand binding assays.
Rhesus H3 radioligand binding assay was performed using rhesus H3 receptor membranes (prepared as described above), [3H]-Methylhistamine (Perkin Elmer) and WGA SPA beads (wheat germ agglutinin scintillation proximity assay) beads (Amersham). The assay was performed in 96-well Opti-Plates (Packard). Each reaction contained 50 μl rhesus H3 membranes (20-30 μg total protein), 50 μl WGA SPA beads (0.1 μg) and 50 μl of 83 Ci/mmol [^3H]-Methylhistamine (final concentration 2 nM) and 50 μl of tested compound. The compounds of this invention and/or vehicle were diluted with binding buffer from 10 mM DMSO stocks. Assay plates were sealed with TopSeal (Perkin Elmer) and mixed on shaker (25° C., 1 hour). Assay plates were read on TopCount scintillation counter (Packard). Results were analyzed by Hill transformation and Ki values were determined by Cheng-Prusoff equation.

Sequence of rhesus (Macacca Mulatta) H3 receptor (Q865E1 1-445): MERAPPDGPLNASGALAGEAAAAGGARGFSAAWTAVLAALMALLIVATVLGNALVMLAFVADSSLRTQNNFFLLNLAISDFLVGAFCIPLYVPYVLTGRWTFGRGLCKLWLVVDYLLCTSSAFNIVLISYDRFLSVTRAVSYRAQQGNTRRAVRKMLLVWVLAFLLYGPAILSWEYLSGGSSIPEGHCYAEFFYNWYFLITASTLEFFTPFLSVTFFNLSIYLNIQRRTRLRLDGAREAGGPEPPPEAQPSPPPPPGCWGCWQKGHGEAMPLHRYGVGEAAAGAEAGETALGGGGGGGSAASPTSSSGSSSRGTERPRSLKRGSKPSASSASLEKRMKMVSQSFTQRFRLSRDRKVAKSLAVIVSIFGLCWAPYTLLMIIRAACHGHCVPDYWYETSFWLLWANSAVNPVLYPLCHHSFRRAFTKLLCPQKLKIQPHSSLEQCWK

Question: How did the Ki turn out when `CC(C)(C)OC(=O)N1CCC2(CC1)CCN(c1ccc([C@H]3CC[C@H](N4CCC4)CC3)cc1F)C2=O` [Example 15, 2-[4-(4-Azetidin-1-yl-cyclohexyl)-2-fluoro-phenyl]-1-oxo-2,8-diaza-spiro[4.5]decane-8-carboxylic acid tert-butyl ester] was run?
Answer: The Ki was 220 nM.

Question: `C[C@H]1CCCN1C1CC[C@H](c2ccc(NC(=O)c3ccc(F)cc3)cc2)C1` (stereo partly drawn) [Example 31, 4-Fluoro-N-{4-[(S)-3-((S)-2-methyl-pyrrolidin-1-yl)-cyclopentyl]-phenyl}-benzamide] was tested. Which Ki did it give?
Answer: Its Ki is 34.9 nM.

Question: With `C[C@H]1CCCN1C1CC[C@H](c2ccc(NS(=O)(=O)c3ccc(F)c(F)c3)cc2)C1` (stereo partly drawn) [Example 30, 3,4-Difluoro-N-{4-[(S)-3-((S)-2-methyl-pyrrolidin-1-yl)-cyclopentyl]-phenyl}-benzenesulfonamide] as the compound, how does the Ki read?
Answer: The Ki was 27.4 nM.

Question: With `C[C@@H]1CCCN1[C@H]1CC[C@H](c2ccc(N3CCC4(CCOCC4)C3=O)cc2)CC1` [Example 10, 2-{4-[4-((R)-2-Methyl-pyrrolidin-1-yl)-cyclohexyl]-phenyl}-8-oxa-2-aza-spiro[4.5]decan-1-one] as the compound, how does the Ki read?
Answer: Its Ki is 35.3 nM.

Question: Which Ki does the source give for `C[C@H]1CCCN1C1CC=C(c2ccc(NC(=O)OCc3ccccc3)c(F)c2)CC1` (stereo partly drawn) [Example 21, {2-Fluoro-4-[4-((S)-2-methyl-pyrrolidin-1-yl)-cyclohex-1-enyl]-phenyl}-carbamic acid benzyl ester] here?
Answer: The Ki was 6.88 nM.

Question: Which Ki does the source give for `C[C@H]1CCCN1C1CC[C@H](c2ccc(NC(=O)c3cccs3)cc2)C1` (stereo partly drawn) [Example 23, Thiophene-2-carboxylic acid {4-[(S)-3-((S)-2-methyl-pyrrolidin-1-yl)-cyclopentyl]-phenyl}-amide] here?
Answer: Its Ki is 46.5 nM.

Question: How did the Ki turn out when `CC1CCCN1C1CC[C@H](c2ccc(NC(=O)OCc3ccccc3)cc2)C1` (stereo partly drawn) [Intermediate (10), {4-[(S)-3-(2-Methyl-pyrrolidin-1-yl)-cyclopentyl]-phenyl}-carbamic acid benzyl ester] was run?
Answer: The Ki was 65.4 nM.

Question: With `C[C@H]1CCCN1[C@H]1CC[C@H](c2ccc(N3CCC4(CCNCC4)C3=O)c(F)c2)CC1` [Example 17, 2-{2-Fluoro-4-[4-((S)-2-methyl-pyrrolidin-1-yl)-cyclohexyl]-phenyl}-2,8-diaza-spiro[4.5]decan-1-one hydrochloride] as the compound, how does the Ki read?
Answer: The Ki was 84.3 nM.

Question: With `O=C1N(c2ccc([C@H]3CC[C@H](N4CCCC4)CC3)cc2F)CCC12CCNCC2` [Example 20, 2-[2-Fluoro-4-(4-pyrrolidin-1-yl-cyclohexyl)-phenyl]-2,8-diaza-spiro[4.5]decan-1-one hydrochloride] as the compound, how does the Ki read?
Answer: Its Ki is 137 nM.

Question: How did the Ki turn out when `O=C1N(c2ccc([C@H]3CC[C@H](N4CCCC4)CC3)cc2)CCC12CCOCC2` [Example 9, 2-[4-(4-Pyrrolidin-1-yl-cyclohexyl)-phenyl]-8-oxa-2-aza-spiro[4.5]decan-1-one] was run?
Answer: Its Ki is 112 nM.

Question: With `Cc1ccccc1C(=O)Nc1ccc([C@H]2CCC(N3CCC[C@@H]3C)C2)cc1` (stereo partly drawn) [Example 33, 2-Methyl-N-{4-[(S)-3-((S)-2-methyl-pyrrolidin-1-yl)-cyclopentyl]-phenyl}-benzamide] as the compound, how does the Ki read?
Answer: Its Ki is 32.6 nM.

Question: For `CC(C)(C)OC(=O)N1CCC2(CC1)CCN(c1ccc([C@H]3CC[C@H](N4CCCC4)CC3)cc1F)C2=O` [Example 13, 2-[2-Fluoro-4-(4-pyrrolidin-1-yl-cyclohexyl)-phenyl]-1-oxo-2,8-diaza-spiro[4.5]decane-8-carboxylic acid tert-butyl ester], which Ki is on record?
Answer: Its Ki is 379 nM.

Question: How did the Ki turn out when `CC1CCCN1C1CC[C@H](c2ccc(N3CCC4(CCC(O)CC4)C3=O)cc2)C1` (some centres unmarked) [Example 4, 8-Hydroxy-2-{4-[3-(2-methyl-pyrrolidin-1-yl)-cyclopentyl]-phenyl}-2-aza-spiro[4.5]decan-1-one] was run?
Answer: The Ki was 75.2 nM.

Question: `CC1CCCN1C1CC[C@H](c2ccc(N3CCCC4(CCNCC4)C3=O)cc2)C1` (some centres unmarked) [Example 8, 2-{4-[3-(2-Methyl-pyrrolidin-1-yl)-cyclopentyl]-phenyl}-2,9-diaza-spiro[5.5]undecan-1-one hydrochloride] was tested. Which Ki did it give?
Answer: The Ki was 6.07 nM.

Question: With `C[C@H]1CCCN1C1CC[C@H](c2ccc(NS(=O)(=O)c3ccc(F)cc3)cc2)C1` (stereo partly drawn) [Example 24, 4-Fluoro-N-{4-[(S)-3-((S)-2-methyl-pyrrolidin-1-yl)-cyclopentyl]-phenyl}-benzenesulfonamide] as the compound, how does the Ki read?
Answer: Its Ki is 12.4 nM.

Question: With `CC(=O)N1CCC(C(=O)Nc2ccc([C@H]3CCC(N4CCC[C@@H]4C)C3)cc2)CC1` (stereo partly drawn) [Example 22, 1-Acetyl-piperidine-4-carboxylic acid {4-[(S)-3-((S)-2-methyl-pyrrolidin-1-yl)-cyclopentyl]-phenyl}-amide] as the compound, how does the Ki read?
Answer: The Ki was 118 nM.

Question: Which Ki does the source give for `C[C@H]1CCCN1C1CC[C@H](c2ccc(NC(=O)c3ccc(OC(F)(F)F)cc3)cc2)C1` (stereo partly drawn) [Example 36, N-{4-[(S)-3-((S)-2-Methyl-pyrrolidin-1-yl)-cyclopentyl]-phenyl}-4-trifluoromethoxy-benzamide] here?
Answer: Its Ki is 48.5 nM.

Question: How did the Ki turn out when `C[C@H]1CCCN1C1CC[C@H](c2ccc(N3CCC4(CCCCC4)C3=O)cc2)C1` (stereo partly drawn) [Example 2, 2-{4-[(S)-3-((S)-2-Methyl-pyrrolidin-1-yl)-cyclopentyl]-phenyl}-2-aza-spiro[4.5]decan-1-one] was run?
Answer: Its Ki is 12.8 nM.

Question: With `CC1CCCN1C1CC[C@H](c2ccc(N3CCCC4(CCCC4)C3=O)cc2)C1` (some centres unmarked) [Example 7, 7-{4-[3-(2-Methyl-pyrrolidin-1-yl)-cyclopentyl]-phenyl}-7-aza-spiro[4.5]decan-6-one] as the compound, how does the Ki read?
Answer: The Ki was 27.5 nM.

Question: `C[C@H]1CCCN1C1CC[C@H](c2ccc(NC(=O)C3CCOCC3)cc2)C1` (stereo partly drawn) [Example 28, Tetrahydro-pyran-4-carboxylic acid {4-[(S)-3-((S)-2-methyl-pyrrolidin-1-yl)-cyclopentyl]-phenyl}-amide] was tested. Which Ki did it give?
Answer: The Ki was 33.7 nM.

Question: How did the Ki turn out when `C[C@H]1CCCN1C1CC[C@H](c2ccc(NC(=O)c3ccccc3OC(F)(F)F)cc2)C1` (stereo partly drawn) [Example 35, N-{4-[(S)-3-((S)-2-Methyl-pyrrolidin-1-yl)-cyclopentyl]-phenyl}-2-trifluoromethoxy-benzamide] was run?
Answer: Its Ki is 136 nM.

Question: Which Ki does the source give for `CC1CCCN1C1CC[C@H](c2ccc(N3CCCC4(CCN(C(=O)OC(C)(C)C)CC4)C3=O)cc2)C1` (some centres unmarked) [Example 3, 2-{4-[3-(2-Methyl-pyrrolidin-1-yl)-cyclopentyl]-phenyl}-1-oxo-2,9-diaza-spiro[5.5]undecane-9-carboxylic acid tert-butyl ester] here?
Answer: Its Ki is 17.9 nM.

Question: For `C[C@H]1CCCN1C1CC[C@H](c2ccc(NC(=O)c3ccc(Cl)cc3)cc2)C1` (stereo partly drawn) [Example 32, 4-Chloro-N-{4-[(S)-3-((S)-2-methyl-pyrrolidin-1-yl)-cyclopentyl]-phenyl}-benzamide], which Ki is on record?
Answer: Its Ki is 65.5 nM.

Question: How did the Ki turn out when `C[C@H]1CCCN1[C@H]1CC[C@H](c2ccc(N3CCC4(CCOCC4)C3=O)cc2)CC1` [Example 12, 2-{4-[4-((S)-2-Methyl-pyrrolidin-1-yl)-cyclohexyl]-phenyl}-8-oxa-2-aza-spiro[4.5]decan-1-one] was run?
Answer: Its Ki is 6.1 nM.

Question: Which Ki does the source give for `C[C@H]1CCCN1C1CC[C@H](c2ccc(NC(=O)OCc3ccccc3)cc2)C1` (mixture of isomers) [Intermediate (13), {4-[(S)-3-((S)-2-Methyl-pyrrolidin-1-yl)-cyclopentyl]-phenyl}-carbamic acid benzyl ester] here?
Answer: The Ki was 37.4 nM.

Question: For `C[C@H]1CCCN1C1CC[C@H](c2ccc(N3CCC4(CCOCC4)C3=O)cc2)C1` (stereo partly drawn) [Example 1, 2-{4-[(S)-3-((S)-2-Methyl-pyrrolidin-1-yl)-cyclopentyl]-phenyl}-8-oxa-2-aza-spiro[4.5]decan-1-one], which Ki is on record?
Answer: Its Ki is 11.9 nM.
